For experiment [1], the system named is rats subjected to MCAO. The experiment is described as follows: Post Stroke Recovery MCAO Model: Forepaw Asymmetry (Cylinder Test). The class given is in vivo, rat. The following applies: low dose, 14 days after stroke. From the text:
Adult male Wistar rats are pre-trained on a battery of behavioral tests including: tray reach, […], forelimb asymmetry (cylinder bracing), forelimb inhibition (swim test) (see below for detailed description of tests). Following pre-stroke behavioral assessment the rats receive surgery during which a stroke is induced. The rats are pseudo-randomly divided into 5 equal groups (n=12) ensuring an equal number of right and left strokes within each treatment group. The first group receives sham surgery with vehicle as treatment. Administration of the test compound and vehicle (dose, route, timing) is determined by the sponsor. The core body temperature is maintained at 37° C. (+/-1°). Following surgery all animals are behaviorally assessed 1, 7, and 14 d post-stroke. At the conclusion of behavioral assessment all rats undergo an MRI to determine infarct volume. […] Rectal temperature is monitored and maintained at 37 C+/-1° C. for the duration of the surgery and until the rat is awake and mobile (approximately 3 hr). […] Forepaw asymmetry of the animals is measured by placing a rat into a clear acrylic cylinder 25 cm in diameter. […] The first paw that touches the cylinder wall during the rear is counted. […]

For experiment [2], the system named is rats subjected to MCAO. Briefly: Post Stroke Recovery MCAO Model: Forelimb Inhibition (Swimming Test). The class given is in vivo, rat. The following applies: 7 and 14 days after stroke. The source says: Adult male Wistar rats are pre-trained on a battery of behavioral tests including: tray reach, […], forelimb asymmetry (cylinder bracing), forelimb inhibition (swim test) (see below for detailed description of tests). Following pre-stroke behavioral assessment the rats receive surgery during which a stroke is induced. The rats are pseudo-randomly divided into 5 equal groups (n=12) ensuring an equal number of right and left strokes within each treatment group. The first group receives sham surgery with vehicle as treatment. Administration of the test compound and vehicle (dose, route, timing) is determined by the sponsor. The core body temperature is maintained at 37° C. (+/-1°). Following surgery all animals are behaviorally assessed 1, 7, and 14 d post-stroke. At the conclusion of behavioral assessment all rats undergo an MRI to determine infarct volume. Group behavioral performance and stroke volume are compared between groups using one way analysis of variance to determine therapeutic benefit of the compound in rate and extent of recovery of function following MCAO stroke. […] Rectal temperature is monitored and maintained at 37 C+/-1° C. for the duration of the surgery and until the rat is awake and mobile (approximately 3 hr). […] Inhibition of the forelimbs is assessed by filming animals during swimming. […] Only the mid 80% of the length is scored. […]

Turning to `Cc1nc(-c2ccccc2Cl)nc(Nc2n[nH]c3ncc(F)cc23)c1C` [Compound I-1, N-(2-(2-chlorophenyl)-5,6-dimethylpyrimidin-4-yl)-5-fluoro-1H-pyrazolo[3,4-b]pyridin-3-amine], in experiment [1], the “deficit in forepaw asymmetry (cylinder test)” value is on record as “significantly ameliorated this deficit”. In experiment [2], the “deficit in forelimb inhibition (swimming test)” value is “significantly ameliorated this deficit”.
